Entries after “also recorded” stand apart in the source; their conditions may differ. Where a name gives a salt, the structure may show the parent alone. Read-outs that look alike come from different tables or passages of the source.
Legend:
[1] = biological target: T1, human TAS2R16 (Homo sapiens, UniProt Q9NYV7); test: Ca2+ flux assay, negative control receptor; conditions: PTC 100 μM, C4-HSL
T1 sequence (Q9NYV7 1-291): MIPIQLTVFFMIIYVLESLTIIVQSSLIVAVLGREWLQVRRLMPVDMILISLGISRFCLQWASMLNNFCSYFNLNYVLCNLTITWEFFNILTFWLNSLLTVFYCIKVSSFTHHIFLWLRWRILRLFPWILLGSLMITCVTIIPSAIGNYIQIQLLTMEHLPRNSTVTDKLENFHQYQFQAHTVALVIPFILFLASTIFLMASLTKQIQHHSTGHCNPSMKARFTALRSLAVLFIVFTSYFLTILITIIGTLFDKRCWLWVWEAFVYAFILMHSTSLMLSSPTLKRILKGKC

[2] = biological target: T2, human TAS2R38 (Homo sapiens, UniProt P59533); test: Ca2+ flux assay, transiently transfected cells with Gα16-gust44; conditions: for calcium flux response of human TAS2R38: PTC 100 μM, PROP 30 μM, C4-HSL 200 μM; for Hill Slope TAS2R38 human: calcium flux dose response
T2 sequence (P59533 1-333): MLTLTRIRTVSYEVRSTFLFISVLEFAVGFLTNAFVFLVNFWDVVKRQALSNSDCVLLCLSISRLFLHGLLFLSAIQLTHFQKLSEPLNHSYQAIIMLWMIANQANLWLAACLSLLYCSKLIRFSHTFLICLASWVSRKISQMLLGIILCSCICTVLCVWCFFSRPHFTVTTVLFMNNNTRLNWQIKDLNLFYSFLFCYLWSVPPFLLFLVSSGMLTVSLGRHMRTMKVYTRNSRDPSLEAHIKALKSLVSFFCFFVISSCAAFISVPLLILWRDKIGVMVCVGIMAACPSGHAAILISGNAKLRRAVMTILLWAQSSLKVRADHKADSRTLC

[3] = biological target: T3, cat Tas2r38 (Felis catus, UniProt Z9BUK5U3L3); test: as above; conditions: for calcium flux response of cat Tas2r38: PTC 100 μM, PROP 30 μM, C4-HSL 200 μM
T3 sequence (Z9BUK5U3L3 1-334): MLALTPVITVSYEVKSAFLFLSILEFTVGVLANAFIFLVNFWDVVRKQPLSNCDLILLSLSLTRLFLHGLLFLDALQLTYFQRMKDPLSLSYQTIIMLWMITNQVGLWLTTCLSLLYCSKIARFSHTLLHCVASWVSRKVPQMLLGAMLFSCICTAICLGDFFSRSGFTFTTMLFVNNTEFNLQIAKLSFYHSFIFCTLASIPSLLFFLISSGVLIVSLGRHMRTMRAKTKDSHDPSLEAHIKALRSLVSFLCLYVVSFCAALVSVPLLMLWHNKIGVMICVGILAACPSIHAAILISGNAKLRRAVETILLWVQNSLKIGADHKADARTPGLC

[4] = biological target: T4, human TAS2R43 (Homo sapiens, UniProt P59537); test: as above; conditions: for calcium flux response of human TAS2R43: PTC 100 μM, C4-HSL, aloin 300 μM, denatonium 1 mM, saccharin 6.7 mM; for Hill Slope TAS2R43 human: calcium flux dose response
T4 sequence (P59537 1-309): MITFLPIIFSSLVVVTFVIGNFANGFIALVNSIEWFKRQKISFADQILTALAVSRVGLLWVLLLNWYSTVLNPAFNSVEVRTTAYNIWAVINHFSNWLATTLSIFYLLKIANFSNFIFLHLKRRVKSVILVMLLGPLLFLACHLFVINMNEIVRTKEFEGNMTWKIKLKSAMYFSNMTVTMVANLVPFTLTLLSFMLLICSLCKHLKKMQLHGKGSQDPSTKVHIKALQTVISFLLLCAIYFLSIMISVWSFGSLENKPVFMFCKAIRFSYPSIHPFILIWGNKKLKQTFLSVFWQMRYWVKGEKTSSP

[5] = tested on: cat Tas2r43; test: as above; conditions: PTC 100 μM, aloin 300 μM, denatonium 1 mM, saccharin 6.7 mM
[6] = biological target: T2, human TAS2R38; design: created similarly, expressing full-length receptor under the control of a CMV promoter; expressed in transfected cells; host or cells: mammalian cells (ATCC CRL-11268), co-transfected with Gα16-gust44; method as in PMID 15723792; conditions: published value for human TAS2R38; cited from earlier work
[7] = biological target: cat Tas2r43 (Felis catus, UniProt A0ABI8A390); test: Ca2+ flux assay, transiently transfected cells with Gα16-gust44; conditions: for calcium flux response of cat Tas2r43: PTC 100 μM, aloin 300 μM, denatonium 1 mM, saccharin 6.7 mM; for Hill Slope Tas2r43 cat: calcium flux dose response
[8] = biological target: T4, human TAS2R43; design: created similarly, expressing full-length receptor under the control of a CMV promoter; expressed in transfected cells; host or cells: mammalian cells (ATCC CRL-11268), co-transfected with Gα16-gust44; conditions: published value for human TAS2R43; cited from earlier work
[9] = biological target: T5, human TAS2R31 (Homo sapiens, UniProt P59538); test: Ca2+ flux assay, probenecid specificity control; format: cell-based; conditions: 1 mM probenecid, one hour pre-incubation
T5 construct: expressed in transfected cells; host or cells: transiently transfected cells expressing the receptor and Gα16-gust44
T5 sequence (P59538 1-309): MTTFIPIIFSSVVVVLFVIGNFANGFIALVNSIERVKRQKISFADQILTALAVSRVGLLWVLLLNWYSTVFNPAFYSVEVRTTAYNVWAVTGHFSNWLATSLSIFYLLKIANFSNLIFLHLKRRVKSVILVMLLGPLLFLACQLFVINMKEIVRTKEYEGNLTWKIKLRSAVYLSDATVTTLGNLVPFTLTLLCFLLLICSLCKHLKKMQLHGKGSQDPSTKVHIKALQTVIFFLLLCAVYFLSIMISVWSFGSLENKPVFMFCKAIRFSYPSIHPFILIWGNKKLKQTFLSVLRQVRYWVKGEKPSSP

[10] = 1 mM probenecid, one hour pre-incubation, 33 μM PTC
[11] = 1 mM probenecid, one hour pre-incubation, 300 μM aloin
[12] = 1 mM probenecid, one hour pre-incubation, 1 mM denatonium

cat Tas2r43 (Felis catus, UniProt A0ABI8A390), sequence (A0ABI8A390 entry or part of it): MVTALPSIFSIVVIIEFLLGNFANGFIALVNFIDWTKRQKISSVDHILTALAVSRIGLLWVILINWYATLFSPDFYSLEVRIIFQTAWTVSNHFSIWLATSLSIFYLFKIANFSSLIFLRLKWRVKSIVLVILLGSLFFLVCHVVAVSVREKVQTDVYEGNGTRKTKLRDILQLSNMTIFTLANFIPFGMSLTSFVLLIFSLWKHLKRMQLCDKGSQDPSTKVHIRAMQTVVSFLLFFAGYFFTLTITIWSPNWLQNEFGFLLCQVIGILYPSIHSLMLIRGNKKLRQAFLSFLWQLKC

NC(=S)Nc1ccccc1 [PTC, phenylthiocarbamide]
calcium flux response of human TAS2R16 [1]: did not respond
EC50 [2]: 2.3 µM
calcium flux response of human TAS2R38 [2]: strong calcium flux
peak fluorescence over baseline ([2]; PTC at 100 μM): 27%
Hill Slope TAS2R38 human [2]: 1.0
calcium flux response of cat Tas2r38 [3]: strong calcium flux
peak fluorescence over baseline ([3]; PTC at 100 μM): 40%
Hill Slope Tas2r38 cat ([3]; calcium flux dose response): 2.6
fold less concentration sensitive, cat Tas2r38 vs human TAS2R38 ([3]; from EC50 values): at least 10 fold
EC50 ([3]; read-out: EC50 Tas2r38 cat, calcium flux dose response, 22 h post-transfection): 47 µM
calcium flux response of human TAS2R43 [4]: did not respond
calcium flux response of cat Tas2r43 [5]: did not respond
EC50 [6]: 1.1 µM

O=C1NS(=O)(=O)c2ccccc21 [Saccharin, saccharin sodium salt hydrate]
calcium flux response of cat Tas2r43 [5]: did not elicit a response

CC[N+](CC)(CC(=O)Nc1c(C)cccc1C)Cc1ccccc1 [Denatonium, denatonium benzoate]
EC50 [4]: 1210 µM
calcium flux response of human TAS2R43 [4]: responded
Hill Slope TAS2R43 human [4]: 1.3
calcium flux response of cat Tas2r43 [7]: responded
Hill Slope Tas2r43 cat [7]: 1.7
fold lower EC50, cat Tas2r43 vs human TAS2R43 ([7]; from EC50 values): greater than 5 fold
EC50 [8]: 300 µM

CCCc1cc(=O)[nH]c(=S)[nH]1 [PROP, 6-propyl-2-thiouracil]
EC50 [2]: 2.2 µM
calcium flux response of human TAS2R38 [2]: responded
Hill Slope TAS2R38 human [2]: 1.59
EC50 [6]: 2.1 µM

O=C1c2c(O)cccc2C([C@@H]2O[C@H](CO)[C@@H](O)[C@H](O)[C@H]2O)c2cc(CO)cc(O)c21 (stereo partly shown) [Aloin, aloin]
EC50 [4]: 35 µM
calcium flux response of human TAS2R43 [4]: responded
Hill Slope TAS2R43 human [4]: 0.8
calcium flux response of cat Tas2r43 [7]: responded
Hill Slope Tas2r43 cat [7]: 1.0
fold more sensitive, human TAS2R43 vs cat Tas2r43 ([7]; from EC50 values): about 10 fold
EC50 [8]: 1.2 µM

CCCN(CCC)S(=O)(=O)c1ccc(C(=O)O)cc1 [probenecid]
probenecid effect on human TAS2R31 response to saccharin [9]: stimulation of flux
probenecid effect on human TAS2R38 response to PTC [2, 10]: failed to induce a calcium flux; also recorded: inhibited completely
probenecid effect on cat Tas2r38 response to PTC [3, 10]: failed to induce a calcium flux; also recorded: inhibited completely
probenecid effect on human TAS2R43 response to aloin [4, 11]: inhibited
probenecid effect on human TAS2R43 response to denatonium [4, 12]: inhibited
probenecid effect on cat Tas2r43 response to aloin [7, 11]: inhibited
probenecid effect on cat Tas2r43 response to denatonium [7, 12]: inhibited

CCCC(=O)N[C@H]1CCOC1=O [C4-HSL]
calcium flux response of human TAS2R16 [1]: no response
calcium flux response of human TAS2R38 [2]: responded weakly but specifically
calcium flux response of cat Tas2r38 [3]: responded weakly but specifically
calcium flux response of human TAS2R43 [4]: no response

Reference: publication PMC4453034, “A functional comparison of the domestic cat bitter receptors Tas2r38 and Tas2r43 with their human orthologs” (BMC Neuroscience, 2015)
